Experimental data published in paper PMC6573034 (Nature Communications, 2019).

What was measured:
SfMCT [1] = target: T1, SfMCT (Syntrophobacter fumaroxidans, UniProt A0LNN5); test: Uptake of [14C]L-lactate and other radiolabeled monocarboxylates into SfMCT expressing E. coli JA202; assay type: cell-based
T1 construct: expressed in transfected cells; host or cells: E. coli JA202 (MC4100 glcA::cat lldP::kan), plasmid pEXT20-SfMCT-3C-10His
T1 sequence (A0LNN5 1-412): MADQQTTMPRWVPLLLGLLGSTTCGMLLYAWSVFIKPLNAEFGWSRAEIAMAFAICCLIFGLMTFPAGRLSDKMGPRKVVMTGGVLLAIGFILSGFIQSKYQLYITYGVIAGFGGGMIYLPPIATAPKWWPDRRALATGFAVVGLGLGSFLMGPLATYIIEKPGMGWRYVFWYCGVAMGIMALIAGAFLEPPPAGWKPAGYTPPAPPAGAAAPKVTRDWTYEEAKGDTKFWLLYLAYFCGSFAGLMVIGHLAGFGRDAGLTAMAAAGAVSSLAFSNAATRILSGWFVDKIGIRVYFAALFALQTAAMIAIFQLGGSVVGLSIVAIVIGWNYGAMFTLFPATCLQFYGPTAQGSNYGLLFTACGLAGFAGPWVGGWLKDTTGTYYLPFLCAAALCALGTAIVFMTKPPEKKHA
Description: (§1) The cultures were grown at 37 °C and 180 r.p.m. in an incubator shaker (Multitron, Infors HT). Protein expression was induced at OD600 ~0.5 by addition of IPTG to a final concentration of 0.25 mM. After 4 h, bacteria were pelleted (5,200 × g, 10 min, room temperature) and resuspended in uptake buffer (20 mM Bis-Tris propane-HCl (pH 6.7), 250 mM KCl) to a bacteria density of OD600 12. […] Furthermore, [3-3 H] propionic acid sodium salt ([^3H]propionate, American Radiolabeled Chemicals, specific activity 30 Ci/mmol), n-[2,3-3 H] butyric acid sodium salt ([^3H]butyrate, American Radiolabeled Chemicals, specific activity 120 Ci/mmol), and [1–14 C] pyruvic acid sodium salt ([^14C]pyruvate, specific activity 0.055 Ci/mmol American Radiolabeled Chemicals) were also used for transport experiments. […] Uptake experiments were performed in 2 ml reaction tubes (Eppendorf) at 30 °C under agitation (1,000 r.p.m., Thermomixer compact, Eppendorf). […] Bacteria were immediately pelleted by centrifugation (21,000 × g, 4 min, room temperature) and washed two times with 900 μl stop buffer. Finally, bacteria were lyzed in 50 μl 5% (w/v) sodium dodecylsulfate and transferred into a white 96-well plate (Optiplate, PerkinElmer). 150 µl of scintillation cocktail (MicroScint 40, PerkinElmer) were added before measuring each reaction for 2 min with a scintillation counter (TopCount NXT, PerkinElmer). For data analysis, the signal of the empty vector was subtracted from the transporter signal. […] Cpm values of each experiment were normalized with respect to the determined upper plateau value, i.e., the fitted upper plateau value corresponds to 100%. The arithmetic average of three independent experiments was calculated. Three independent and normalized pH-dependence curves were then averaged. For data analysis Prism6 (GraphPad Software) was used. […] Equal amounts of bacteria expressing SfMCT variants were loaded on 14% SDS/polyacrylamide gels. His-tagged transporters were detected using an anti-His5 (Qiagen, catalogue number 34660, primary antibody) at a dilution of 1:3,000 and a goat anti-mouse IgG (H + L) HRP conjugate antibody (Biorad, catalogue number 172-1011, secondary antibody) at a dilution of 1:2,500.

SfMCT [2] = target: T1, SfMCT; assay type: cell-based; conditions: competitor 1 mM
Description: as §1

SfMCT [3] = target: T1, SfMCT; test: Micro pH electrode-based transport assay, SfMCT-expressing E. coli JA202; assay type: cell-based; conditions: 10 mM compound (pH 6.5) added to bacterial suspension pH 6.7
Description: (§2) A measuring set up as previously reported[18] was used for micro pH electrode-based transport measurements. SfMCT was expressed in E. coli JA202 (MC4100 glcA::cat lldP::kan)[15] as described for uptake experiments. After expression, bacteria were pelleted (5,200 × g, 10 min, room temperature), washed twice in assay solution (250 mM KCl, 1 mM MgSO4, 2 mM CaCl2; 5,200 × g, 10 min, room temperature) and finally resuspended in assay solution to a bacterial density of OD600 15. Compounds that were assayed for proton-coupled transport were dissolved in assay solution and the pH was adjusted to 6.5. 800 µl of bacteria suspension were transferred into a 2 ml reaction tube (Eppendorf) and the pH value of the bacterial suspension (extracellular medium) was measured using a micro pH electrode with integrated temperature sensor (InLab Micro Pro, Mettler Toledo) under constant stirring. The pH of the bacterial suspension was adjusted to pH 6.7 using potassium hydroxide and hydrochloric acid. The SevenCompact pH-meter (Mettler Toledo), together with LabX direct pH 2.3 software (Mettler Toledo), were used for automatic recording in 15 s intervals. Measurements were initiated by adding 10 mM of the corresponding compound to the bacterial suspension. All experiments were performed at 24 °C.

[4] = test system: vector-transformed E. coli JA202; test: Micro pH electrode-based transport assay, vector-transformed E. coli JA202; assay type: cell-based; conditions: 10 mM compound (pH 6.5) added to vector-transformed bacterial suspension pH 6.7
Description: as §2

MCT2 (SLC16A7) = conditions: MCT2, L-lactate; cited from earlier work
MCT1 (SLC16A1) = conditions: MCT1, L-lactate; cited from earlier work
MCT3 (SLC16A8) = conditions: MCT3, L-lactate; cited from earlier work

SMILES: C[C@H](O)C(=O)O [L-lactate]
- Uptake of radioligand by SfMCT (cpm) (SfMCT [1]; 0.1 µCi radiolabeled monocarboxylate, SfMCT-overexpressing bacteria): 10963 cpm
- Uptake of [14C]L-lactate by SfMCT (cpm) (SfMCT [1]; Time 30 min): 8927.33 cpm
- Net uptake of [14C]L-lactate through SfMCT (cpm) (SfMCT [1]; Time 30 min, SfMCT minus vector): 7196.33 cpm
- Uptake of [14C]L-lactate (SfMCT [1]; [L-lactate] 500 µM): 253.382 pmol
- Uptake of [14C]L-lactate (SfMCT [1]; [L-lactate] 750 µM): 287.925 pmol
- competition with [14C]L-lactate uptake (in words) (SfMCT [2]): strongest competition
- proton-coupled transport, change of extracellular pH (in words) (SfMCT [3]): immediate pH increase
- proton-coupled transport, change of extracellular pH (in words) [4]: significantly slower and lower pH increase
- Km (MCT2 (SLC16A7)): ~0.7 mM
- Km (MCT1 (SLC16A1)): 3 to 5 mM
- Km (MCT3 (SLC16A8)): ~6 mM
